Laboratory results published in patent US20220348595A1, “COMPOUNDS AND METHODS FOR THE TARGETED DEGRADATION OF ESTROGEN RECEPTORS” (Endotarget Inc., priority 2021, published 2022).
Read-outs that look alike come from different tables or passages of the source.

How the values were obtained:
Assay type in all cases: cell-based
ERα = molecular target: T1, ERα (Homo sapiens, UniProt P03372); assay: ER degradation in MCF-7 cells (Western blot); conditions: for DC50: ER degradation, 24 hours
T1 construct: endogenous in cells; host or cells: MCF-7
T1 sequence (P03372 1-595): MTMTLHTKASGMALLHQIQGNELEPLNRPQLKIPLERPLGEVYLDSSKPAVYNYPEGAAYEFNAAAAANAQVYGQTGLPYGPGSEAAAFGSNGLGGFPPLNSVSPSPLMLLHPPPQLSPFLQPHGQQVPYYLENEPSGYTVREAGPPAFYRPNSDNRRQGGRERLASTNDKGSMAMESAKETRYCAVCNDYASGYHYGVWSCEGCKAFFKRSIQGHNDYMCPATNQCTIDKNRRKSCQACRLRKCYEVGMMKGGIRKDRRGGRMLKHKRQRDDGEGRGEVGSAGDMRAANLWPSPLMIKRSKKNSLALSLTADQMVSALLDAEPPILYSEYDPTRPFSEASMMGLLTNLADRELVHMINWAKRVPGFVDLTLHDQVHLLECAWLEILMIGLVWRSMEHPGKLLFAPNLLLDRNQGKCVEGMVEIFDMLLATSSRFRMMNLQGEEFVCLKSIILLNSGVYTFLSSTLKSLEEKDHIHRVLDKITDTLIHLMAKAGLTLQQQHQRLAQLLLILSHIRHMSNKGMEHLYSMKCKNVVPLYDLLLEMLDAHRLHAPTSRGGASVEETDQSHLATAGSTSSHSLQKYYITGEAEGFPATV
Protocol: Degradation of ER in MCF-7 Breast Cancer Cells by Exemplary Compounds of the Present Disclosure
MCF-7 cells were plated in 24-well plates at a density of 10^5 cells/well. Media containing various drug concentrations were added on the day following plating (day 0) and allowed to incubate for 24 hours for Western blot. Media with the tested compound was changed every other day. Cells were lysed, snapped frozen in liquid nitrogen, and stored at −80° C. until assay for ERα. Media were removed and dishes were washed with 1× DPBS. Lysates were made by adding 150 μL of complete lysis solution and scraping cells into a 1.5 mL microcentrifuge tube. Lysates were placed on a rotisserie at 4° C. for 30 min and then spun at 4° C. at 12000 rcf for 10 min. Supernatants were assayed for protein content, snap-frozen, and stored a −80° C. if not run immediately. Then 50 μg of protein was subjected to Western blot protocol. Membranes were blocked and then incubated with 1:200 dilution of ERα antibody at 4° C. overnight followed by 1:10000 dilution of secondary antibody for 1 h at room temperature. They were then imaged on a LICOR infrared scanner.
FIGS. 1 to 10 show the ER degradation efficacy of compounds 3, 5, 9, 11, 12, 16, 18, 19, 20, 21, 23, 24, 25, 26, 27, 28, 29, 30, 31, 32, 33, 34, 37, 38, and 40 in MCF-7 cells at various concentrations. Degradation of ER was expressed as an DC50 value and was determined for exemplary compounds in Table 1 by calculation of the concentration of compound that was required to give a 50% reduction of ER expression level. Maximal degradation of ER was expressed as a Dmax value by measuring the highest percentage of ER reduction achieved by exemplary compound in the treatment concentration range.

ER = molecular target: T2, ER (Homo sapiens, UniProt P03372); assay: ER antagonism (T47D ERE luciferase), T47d-kb-Luc cells; conditions: read-out: IC50 (ER antagonistm)
T2 construct: endogenous in cells; host or cells: T47d-kb-Luc (T47D stably transfected with a luciferase reporter gene only)
T2 sequence (P03372 1-595): T1 sequence (P03372 1-595)
Protocol: The Antiestrogenic Activity of the Exemplary Compounds was Assessed in T47d-kb-Luc Stably Transfected Human Breast Cancer Cell
Antagonist activities were measured by the compound's ability to inhibit the activity of estradiol, the natural estrogen. Data were then normalized relative to the activity of the estradiol control and determinations were performed for five concentrations of the samples in quadruplicate in at least three separate experiments.

[1] = tested on: MCF-7 breast cancer cells; assay: MCF-7 proliferation / cell viability assay; conditions: MCF-7 proliferation with 0.1 nM 17-beta estradiol, read-out: IC50 (anti-proliferation)
Protocol: The Anti-Proliferative Activities of the Exemplary Compounds were Assessed by a Cell Viability Assay in MCF-7 Breast Cancer Cells
MCF-7 cells were plated in six-well plates at a density of 50,000 each well in 5% FBS DMEM medium. The cells were then treated with exemplary compounds or fulvestrant separately at 6 different doses ranging from 10^−10 M to 10^−5 M for 5 days, while equal volumes of DMSO were used as vehicle controls. Viable cell numbers were counted with a Z Series Coulter Counter instrument (Beckman-Coulter) following manufacturer's instructions. The ratio of drug treated viable cell numbers to vehicle treated viable cell numbers was defined as survival ratio where the control has the survival ratio of 100%.

[2] = MCF7, Maximal ER degradation, read-out: Dmax

SMILES | DC50 (ERα) [nM] | Dmax (ERα; [2]) [%] | IC50 (ER) [nM] | IC50 ([1]; Homo sapiens, MCF7) [nM] | Dmax (ERα; Maximal ER degradation) | IC50 [1] [nM]
CC/C(=C(/c1ccc(OCCN2CCC(C3CCN(c4ccc5c(c4)C(=O)N(C4CCC(=O)NC4=O)C5=O)CC3)CC2)cc1)c1ccc(B(O)O)cc1)c1ccccc1 (centres unmarked) [Compound 33, (Z)-(4-(1-(4-(2-(1′-(2-(2,6-dioxopiperidin-3-yl)-1,3-dioxoisoindolin-5-yl)-[4,4′-bipiperidin]-1-yl)ethoxy)phenyl)-2-phenylbut-1-en-1-yl)phenyl)boronic acid] | < 10 | > 90 | 10 to 50 | 10 to 50 | – | –
CC/C(=C(/c1ccc(B(O)O)cc1)c1ccc(N2CCC(CCCN3CCN(c4ccc5c(c4)C(=O)N(C4CCC(=O)NC4=O)C5=O)CC3)CC2)cc1)c1ccccc1 (centres unmarked) [Compound 52, (E)-(4-(1-(4-(4-(3-(4-(2-(2,6-dioxopiperidin-3-yl)-1,3-dioxoisoindolin-5-yl)piperazin-1-yl)propyl)piperidin-1-yl)phenyl)-2-phenylbut-1-en-1-yl)phenyl)boronic acid] | < 10 | > 90 | 10 to 50 | 10 to 50 | – | –
CC/C(=C(\c1ccc(OCCN2CCN(C(=O)N3CCC(N4CCN(c5ccc6c(c5)CN(C5CCC(=O)NC5=O)C6=O)CC4)CC3)CC2)cc1)c1ccc(B(O)O)cc1)c1ccccc1 (centres unmarked) [Compound 96, (E)-(4-(1-(4-(2-(4-(4-(4-(2-(2,6-dioxopiperidin-3-yl)-1-oxoisoindolin-5-yl)piperazin-1-yl)piperidine-1-carbonyl)piperazin-1-yl)ethoxyl)phenyl)-2-phenylbut-1-en-1-yl)phenyl)boronic acid] | 10 to 50 | > 90 | < 10 | < 10 | – | –
CC/C(=C(\c1ccc(B(O)O)cc1)c1ccc(N2CCN(CCCN3CCN(c4ccc5c(c4)C(=O)N(C4CCC(=O)NC4=O)C5=O)CC3)CC2)cc1)c1ccccc1 (centres unmarked) [Compound 43, (Z)-(4-(1-(4-(4-(3-(4-(2-(2,6-dioxopiperidin-3-yl)-1,3-dioxoisoindolin-5-yl)piperazin-1-yl)propyl)piperazin-1-yl)phenyl)-2-phenylbut-1-en-1-yl)phenyl)boronic acid] | < 10 | > 90 | 10 to 50 | < 10 | – | –
CC/C(=C(/c1ccc(B(O)O)cc1)c1ccc(C2CCN(CCCN3CCN(c4ccc5c(c4)CN(C4CCC(=O)NC4=O)C5=O)CC3)CC2)cc1)c1ccccc1 (centres unmarked) [Compound 50, (E)-(4-(1-(4-(1-(3-(4-(2-(2,6-dioxopiperidin-3-yl)-1-oxoisoindolin-5-yl)piperazin-1-yl)propyl)piperidin-4-yl)phenyl)-2-phenylbut-1-en-1-yl)phenyl)boronic acid] | < 10 | > 90 | < 10 | 10 to 50 | – | –
CC/C(=C(/c1ccc(OCCN2CCC(CN3CCN(c4ccc5c(c4)CN([C@H]4CCC(=O)NC4=O)C5=O)CC3)CC2)cc1)c1ccc(B(O)O)cc1)c1ccccc1 [Compound 73, (S,Z)-(4-(1-(4-(2-(4-((4-(2-(2,6-dioxopiperidin-3-yl)-1-oxoisoindolin-5-yl)piperazin-1-yl)methyl)piperidin-1-yl)ethoxy)phenyl)-2-phenylbut-1-en-1-yl)phenyl)boronic acid] | < 10 | > 90 | < 10 | < 10 | – | –
CC/C(=C(/c1ccc(B(O)O)cc1)c1ccc(N2CCC(CCN3CCN(c4ccc5c(c4)C(=O)N(C4CCC(=O)NC4=O)C5=O)CC3)CC2)cc1)c1ccccc1 (centres unmarked) [Compound 64] | 10 to 50 | > 90 | 10 to 50 | 10 to 50 | – | –
CC/C(=C(/c1ccc(OCCN2CCN(c3ccc4c(c3)C(=O)N(C3CCC(=O)NC3=O)C4=O)CC2)cc1)c1ccc(B(O)O)cc1)c1ccccc1 (centres unmarked) [Compound 41, (Z)-(4-(1-(4-(2-(4-(2-(2,6-dioxopiperidin-3-yl)-1,3-dioxoisoindolin-5-yl)piperazin-1-yl)ethoxy)phenyl)-2-phenylbut-1-en-1-yl)phenyl)boronic acid] | 10 to 50 | > 50 | 10 to 50 | 10 to 50 | – | –
CC/C(=C(/c1ccc(B(O)O)cc1)c1ccc(N2CCN(CCCN3CCN(c4ccc5c(c4)CN(C4CCC(=O)NC4=O)C5=O)CC3)CC2)cc1)c1ccccc1 (centres unmarked) [Compound 46, (E)-(4-(1-(4-(4-(3-(4-(2-(2,6-dioxopiperidin-3-yl)-1-oxoisoindolin-5-yl)piperazin-1-yl)propyl)piperazin-1-yl)phenyl)-2-phenylbut-1-en-1-yl)phenyl)boronic acid] | < 10 | > 90 | < 10 | 10 to 50 | – | –
CC/C(=C(/c1ccc(B(O)O)cc1)c1ccc(N2CCC(CNC3CCN(c4ccc5c(c4)C(=O)N(C4CCC(=O)NC4=O)C5)CC3)CC2)cc1)c1ccccc1 (centres unmarked) [Compound 14, (E)-(4-(1-(4-(4-(((1-(2-(2,6-dioxopiperidin-3-yl)-3-oxoisoindolin-5-yl)piperidin-4-yl)amino)methyl)piperidin-1-yl)phenyl)-2-phenylbut-1-en-1-yl)phenyl)boronic acid] | < 10 | > 90 | < 10 | < 10 | – | –
CC/C(=C(\c1ccc(OCCN2CCC(CCN3CCN(c4ccc5c(c4)CN(C4CCC(=O)NC4=O)C5=O)CC3)CC2)cc1)c1ccc(B(O)O)cc1)c1ccccc1 (stereo not drawn) [Compound 30, (E)-(4-(1-(4-(2-(4-(2-(4-(2-(2,6-dioxopiperidin-3-yl)-1-oxoisoindolin-5-yl)piperazin-1-yl)ethyl)piperidin-1-yl)ethoxy)phenyl)-2-phenylbut-1-en-l-yl)phenyl)boronic acid] | < 10 | > 90 | 10 to 50 | 10 to 50 | – | –
CC/C(=C(/c1ccc(B(O)O)cc1)c1ccc(N2CCN(CCC3CCN(c4ccc5c(c4)C(=O)N(C4CCC(=O)NC4=O)C5=O)CC3)CC2)cc1)c1ccccc1 (centres unmarked) [Compound 66, (E)-(4-(1-(4-(4-(2-(1-(2-(2,6-dioxopiperidin-3-yl)-1,3-dioxoisoindolin-5-yl)piperidin-4-yl)ethyl)piperazin-1-yl)phenyl)-2-phenylbut-1-en-1-yl)phenyl)boronic acid] | < 10 | > 90 | 10 to 50 | 10 to 50 | – | –
CC/C(=C(\c1ccc(OCCN2CCN(CCN3CCN(c4ccc5c(c4)C(=O)N(C4CCC(=O)NC4=O)C5=O)CC3)CC2)cc1)c1ccc(B(O)O)cc1)c1ccccc1 (centres unmarked) [Compound 24] | < 10 | > 90 | 10 to 50 | 10 to 50 | – | –
CC/C(=C(\c1ccc(O)cc1)c1ccc(OCCN2CCN(C(=O)N3CCC(CN4CCN(c5ccc6c(c5)CN(C5CCC(=O)NC5=O)C6=O)CC4)CC3)CC2)cc1)c1ccccc1 (centres unmarked) [Compound 89] | < 10 | – | < 10 | – | A (A -> 90%) | < 10
